Values of other authors in patent publication US20220008839A1, “SEMI-AQUEOUS METHOD FOR EXTRACTING A SUBSTANCE” (Clean Imagineering LLC, priority 2020, published 2022).

Structure (SMILES) | solubility in ethanol (an alcohol such as ethanol) | solubility in water | solubility in ethyl acetate (ethyl acetate) | water solubility (at 20° C.)
C=C(C)[C@@H]1CC[C@]2(CO)CC[C@]3(C)[C@H](CC[C@@H]4[C@@]5(C)CC[C@H](O)C(C)(C)[C@@H]5CC[C@]43C)[C@@H]12 [Betulin] | highly soluble | insoluble in water |  | 
CC(C)=CCC/C(C)=C/C=C/C(C)=C/C=C/C(C)=C/C=C/C=C(C)/C=C/C=C(C)/C=C/C=C(\C)CCC=C(C)C [Lycopene] |  | insoluble in water | freely soluble | 
CCOC(C)=O [ethyl acetate] |  |  |  | 86 mg/mL
